The text below walks through data of PubChem BioAssay (NCI).

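Where inhibition never reached the appropriate level, the endpoint shown equals the highest concentration tested. Otherwise, values were interpolated linearly from a five-concentration, 48-hour dose response in 96-well plates. GI50: concentration for 50% inhibition of growth. TGI: concentration producing complete growth inhibition.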

Among the test systems are OVCAR-3 ovarian; MDA-MB-231 breast; ACHN renal; NCI-H226 lung; IGROV1 ovarian; RXF 393 renal; BT-549 breast; SK-MEL-28 melanoma; MDA-N.
Assay in all cases: NCI tumour cell line growth inhibition, 48 h

Turning to `Cc1ccc(N=C/C=C(\Nc2ccc(C)cc2)c2ccc3ccccc3c2)cc1`, the TGI worked out at 11.2 µM in the assay with OVCAR-3 ovarian; 2.12 µM in the assay on MDA-MB-231 breast; 7.77 µM with ACHN renal; 4.48 µM in the assay with NCI-H226 lung; 15.1 µM in the assay on IGROV1 ovarian; 8.52 µM in the assay on RXF 393 renal. The TGI in the assay with BT-549 breast was determined as 13.6 µM; in the assay on SK-MEL-28 melanoma it was 11.2 µM.

Take `CC/C=C/c1cc2c(cc1O)CCC1C2CC[C@@]2(C)C1CC[C@@H]2O` (some centres undefined): the TGI with OVCAR-3 ovarian turned out to be 1.6 µM; with MDA-MB-231 breast, 18.1 µM; with MDA-N, 0.637 µM; in the assay on ACHN renal, 17.9 µM; in the assay with NCI-H226 lung, 10.6 µM; in the assay on IGROV1 ovarian, 17.5 µM. Further, the TGI stood at 7.92 µM with RXF 393 renal and 24.1 µM with SK-MEL-28 melanoma.

Consider `O=C1N2CCC[C@H]2CS1(=O)=O`, for which the TGI in the assay on OVCAR-3 ovarian was 31.4 µM; in the assay on MDA-MB-231 breast, 29.6 µM; with ACHN renal, 29.7 µM; with NCI-H226 lung, 72.2 µM; in the assay with IGROV1 ovarian, 34.7 µM; in the assay on RXF 393 renal, 21.7 µM. Further, the values for the TGI with BT-549 breast and in the assay with SK-MEL-28 melanoma were 30.2 µM and 41.2 µM, respectively.

As to `COC(=O)c1c2c(cc3c1CC1(Cc4cc5c(c(C)c4C1)CCC5)C3)CCC2` (centres undefined), the TGI in the assay with OVCAR-3 ovarian, in the assay on MDA-MB-231 breast, with MDA-N, with ACHN renal, in the assay on IGROV1 ovarian and in the assay on RXF 393 renal was > 100 µM in each case. Besides, the TGI in the assay on SK-MEL-28 melanoma was > 100 µM.

Take `C=C(CN(CC)CC)C1(c2ccccc2)CC2(CCCC2)C(=O)O1` (centres undefined): the TGI with OVCAR-3 ovarian, with MDA-MB-231 breast, with MDA-N, with ACHN renal, in the assay on NCI-H226 lung and in the assay with IGROV1 ovarian was > 100 µM in each case. For the same compound, the TGI in the assay with RXF 393 renal and in the assay on SK-MEL-28 melanoma was > 100 µM throughout.

`Cc1cc2nc3ccccc3n2c2ccccc12`: the TGI in the assay with OVCAR-3 ovarian, in the assay with MDA-MB-231 breast, in the assay on MDA-N, with ACHN renal, in the assay on NCI-H226 lung and in the assay with IGROV1 ovarian was > 10 µM throughout. Further, the TGI in the assay on RXF 393 renal and in the assay on SK-MEL-28 melanoma was > 10 µM in each case.

As for `COc1ccc(/C=c2\[nH]c3nc(=O)c(N4CCCCC4)c(N)n3c2=O)cc1`, the TGI in the assay on MDA-MB-231 breast, in the assay with MDA-N, with ACHN renal, in the assay with NCI-H226 lung, in the assay on IGROV1 ovarian and in the assay on RXF 393 renal was > 100 µM in each case. Further, the TGI with SK-MEL-28 melanoma is > 100 µM.

For `COC(=O)c1onc(C2OC(C)(C)OC2C(O)COC(c2ccccc2)(c2ccccc2)c2ccccc2)c1C(=O)OC` (centres undefined), the TGI in the assay with OVCAR-3 ovarian, in the assay with MDA-MB-231 breast, in the assay with MDA-N, in the assay on ACHN renal, in the assay on NCI-H226 lung and with RXF 393 renal was > 100 µM in each case. Moreover, the TGI in the assay with SK-MEL-28 melanoma was > 100 µM.

`O=C1CC(c2ccsc2)n2cccc21` (centres undefined): the TGI in the assay on OVCAR-3 ovarian, in the assay on MDA-MB-231 breast, in the assay with ACHN renal, with NCI-H226 lung, in the assay on IGROV1 ovarian and in the assay with RXF 393 renal was > 100 µM in each case. In addition, the TGI in the assay on SK-MEL-28 melanoma is > 100 µM.

`Oc1c(Cl)cc2cc1-c1cc(cc(Cl)c1O)CCc1c(cc(Cl)c(O)c1Cl)-c1cc(Cl)c(c(Cl)c1O)/C=C\2`: the TGI in the assay with OVCAR-3 ovarian is 14.4 µM; in the assay on ACHN renal it was 29.7 µM; in the assay on NCI-H226 lung, 22.5 µM; in the assay on IGROV1 ovarian, 18.3 µM; in the assay with RXF 393 renal it was > 50 µM; in the assay on BT-549 breast, > 50 µM. The compound also gave a TGI with SK-MEL-28 melanoma of 19.3 µM.

Take `Oc1ccc(Cl)cc1-c1cc(-c2ccccc2)nc(=S)[nH]1`: the TGI in the assay with OVCAR-3 ovarian was > 100 µM; in the assay with MDA-MB-231 breast it was 85.8 µM; in the assay on MDA-N, > 100 µM; with ACHN renal, > 100 µM; in the assay with NCI-H226 lung, > 100 µM; with IGROV1 ovarian it was > 100 µM. Also, the TGI with RXF 393 renal and in the assay with SK-MEL-28 melanoma was > 100 µM in each case.

On to `Oc1ccc2ccccc2c1OCc1nnc(CCCCCCCCc2nnc(COc3c(O)ccc4ccccc34)n2Nc2ccccc2)n1Nc1ccccc1`, for which the TGI in the assay on OVCAR-3 ovarian was 32.1 µM; in the assay with MDA-MB-231 breast, 61.1 µM; in the assay on ACHN renal it was > 100 µM; with NCI-H226 lung, > 91.1 µM; in the assay with IGROV1 ovarian, > 81.8 µM; in the assay on RXF 393 renal it was > 78 µM. The figures for the TGI in the assay with BT-549 breast and with SK-MEL-28 melanoma were 77.7 µM and > 87.7 µM, respectively.

Turning to `CC(C)(C)OC(=O)C(C#N)C(=O)c1ccc(C(=O)O)[nH]1` (centres undefined), the TGI with OVCAR-3 ovarian, in the assay with MDA-MB-231 breast, in the assay with MDA-N, in the assay on ACHN renal, in the assay with NCI-H226 lung and with BT-549 breast was > 100 µM throughout. For the same compound, the TGI in the assay on SK-MEL-28 melanoma was > 100 µM.

Regarding `COc1cc(S(=O)(=O)Nc2ccc(-c3csc(N4C(=O)C(Cl)C4c4ccccc4O)n3)cc2)ccc1Cl` (centres undefined), the TGI in the assay with OVCAR-3 ovarian is > 100 µM; in the assay on MDA-N it was > 100 µM; in the assay on ACHN renal, > 100 µM; with NCI-H226 lung, > 100 µM; in the assay on IGROV1 ovarian it was 56.3 µM; with RXF 393 renal, 52.6 µM. Also, the TGI in the assay on BT-549 breast and in the assay with SK-MEL-28 melanoma was > 100 µM throughout.

As for `Nc1ccc2c(=O)cc(-c3ccc(Br)s3)[nH]c2n1`, the TGI is > 100 µM with OVCAR-3 ovarian; > 94.8 µM in the assay on MDA-MB-231 breast; 1.29 µM in the assay with MDA-N; > 100 µM in the assay on ACHN renal; 9.11 µM in the assay on NCI-H226 lung; > 100 µM with IGROV1 ovarian. For the same compound, the TGI with RXF 393 renal and in the assay with SK-MEL-28 melanoma was > 100 µM throughout.

Turning to `O=c1[nH]n(CCc2ccccc2CCl)c2ccc([N+](=O)[O-])cc12`, the TGI in the assay on OVCAR-3 ovarian, in the assay with MDA-MB-231 breast, with ACHN renal, with NCI-H226 lung, in the assay on IGROV1 ovarian and in the assay on RXF 393 renal was > 100 µM in each case. Further, the TGI in the assay on BT-549 breast and in the assay on SK-MEL-28 melanoma was > 100 µM each time.

Take `CC(=O)/C=C/c1ccccc1`: the TGI with MDA-MB-231 breast was > 100 µM; in the assay on MDA-N, 91.9 µM; in the assay on ACHN renal, > 100 µM; in the assay on NCI-H226 lung it was 91.2 µM; in the assay on IGROV1 ovarian it was 64.9 µM; in the assay on RXF 393 renal, > 100 µM. Also, in the assay on SK-MEL-28 melanoma, the TGI was > 100 µM.

`COc1cc2c3c(n(C)c(=O)c2cc1OC)-c1cc2c(cc1/C3=C\CCCCCBr)OCO2`: the TGI in the assay on MDA-MB-231 breast was > 100 µM; with MDA-N, > 100 µM; with ACHN renal, 41.7 µM; in the assay on IGROV1 ovarian it was 0.605 µM; in the assay with BT-549 breast it was > 100 µM; in the assay on SK-MEL-28 melanoma it was 3.24 µM.

In the case of `O=C(O)Cn1c2c(c3c1-c1ccccc1C3=O)C(=O)CCC2`, the GI50 with OVCAR-3 ovarian, in the assay with MDA-MB-231 breast, in the assay on ACHN renal, in the assay with NCI-H226 lung, in the assay on IGROV1 ovarian and with RXF 393 renal was > 100 µM in each case. Further, the GI50 in the assay with BT-549 breast and in the assay with SK-MEL-28 melanoma was > 100 µM each time. Also, the TGI in the assay on OVCAR-3 ovarian, with MDA-MB-231 breast, with ACHN renal, with NCI-H226 lung, in the assay on IGROV1 ovarian and with RXF 393 renal was > 100 µM throughout. In addition, the TGI with BT-549 breast and in the assay on SK-MEL-28 melanoma was > 100 µM each time.

On to `O=C(Nc1ccc(-n2cc(-c3ccncc3)c(-c3ccc(O)c(Cl)c3)n2)cc1)c1ccc(Cl)c(C(F)(F)F)c1`, for which the GI50 is 1.63 µM in the assay with OVCAR-3 ovarian; 0.735 µM in the assay with MDA-MB-231 breast; 1.8 µM with ACHN renal; > 50 µM in the assay with NCI-H226 lung; 15.6 µM with IGROV1 ovarian; 0.717 µM with RXF 393 renal. For the same compound, the GI50 with SK-MEL-28 melanoma was 3.61 µM. Moreover, the TGI with OVCAR-3 ovarian was 7.33 µM; in the assay with MDA-MB-231 breast, 1.56 µM; with ACHN renal, 13.3 µM; in the assay with NCI-H226 lung it was > 50 µM; in the assay with IGROV1 ovarian, > 50 µM; with RXF 393 renal, 1.64 µM. Also, the TGI with SK-MEL-28 melanoma is > 50 µM.

For the compound `Cc1cn(C2CC(COCc3ccccc3)N(CCO[Si](C)(C)C(C)(C)C)O2)c(=O)[nH]c1=O` (centres undefined), the TGI in the assay with OVCAR-3 ovarian turned out to be 28.4 µM; in the assay with MDA-MB-231 breast it was 33.2 µM; in the assay on MDA-N it was 27.9 µM; in the assay with ACHN renal, 28.9 µM; with RXF 393 renal, 29 µM; in the assay on SK-MEL-28 melanoma, 34.7 µM.

`Cc1c(OCc2cccc3ccccc23)ccc2c(=O)cc(SCCN3CCOCC3)oc12`: the TGI in the assay on OVCAR-3 ovarian, with MDA-MB-231 breast, in the assay on ACHN renal, in the assay on NCI-H226 lung, in the assay with IGROV1 ovarian and in the assay with RXF 393 renal was > 100 µM in each case. For the same compound, the TGI in the assay on BT-549 breast and in the assay on SK-MEL-28 melanoma was > 100 µM throughout.

On to `O=c1[nH]nc(-c2ccccc2)c2[nH]c3c(c12)Cc1ccccc1-3`, for which the TGI in the assay with OVCAR-3 ovarian is > 49 µM; in the assay with MDA-N, > 27.4 µM; with ACHN renal it was > 100 µM; in the assay with NCI-H226 lung it was 70.7 µM; with IGROV1 ovarian, > 100 µM; in the assay on RXF 393 renal it was > 42.2 µM. For the same compound, the TGI in the assay with BT-549 breast and in the assay with SK-MEL-28 melanoma was > 100 µM in each case.

For `Cc1ccc(-n2nncc2[Si](C)(C)C)s1`, the TGI with OVCAR-3 ovarian, in the assay with MDA-MB-231 breast, with MDA-N, with ACHN renal, in the assay with NCI-H226 lung and with BT-549 breast was > 100 µM each time. For the same compound, the TGI in the assay on SK-MEL-28 melanoma was > 100 µM.
